According to US9346839B2:
Read-outs that look alike come from different tables or passages of the source.

What was measured:
SK-N-SH cells = assay: Mitochondrial cytochrome c oxidase (CcO) activity in Aβ-treated cells; type: cell-based; conditions: for CcO activity, inhibitor alone: 1 μM inhibitor alone, without Aβ; for Aβ-mediated decrease of CcO activity: 5 μM oligomer Aβ1-42 plus 1 μM compound, 48 hours
Procedure: SK-NSH cells were treated with 5 μM oligomer Aβ plus 1 μM of ABAD inhibitor; inhibitor alone; vehicle (VEH) without inhibitor; or Aβ alone. Forty-eight hour later, CcO activity (μmol protein mg^−1 min^−1) was measured in cell lysates.
Method of Measurement of Mitochondrial Cytochrome c Oxidase (CcO) Activity. The CcO activity was measured according to known methods (Du, et al. (2008) Nat. Med. 14:1097-105) with a cytochrome c oxidase kit (Sigma). In brief, SK-N-SH cells were incubated with ABAD inhibitor and oligomer Aβ for 48 hours. After washing the cells twice with PBS, the cells were collected and concentration was determined by the Bradford method. A suitable volume of cells and enzyme solution was added to 475 μl assay buffer. The reaction was triggered by the addition of 25 μl freshly prepared ferrocytochrome C substrate solution into the cuvette. Changes in OD550 nm were recorded immediately with an Amersham Biosciences ULTROSPECT 3100 pro spectrophotometer.
Cytochrome C Oxidase (CcO) Activity. To assess the effect of ABAD inhibitor on […] mitochondrial respiratory function, CcO activity was determined.

[1] = Pharmacokinetic study, plasma and brain levels by LC-MS/MS; type: in vivo; conditions: both sexes, C57BL6, mouse, intravenous 10 mg/kg, mice; for AUC(0-t): read-out: AUC0-48
Procedure: Liquid Chromatography (LC) Method for Mass Spectrometry (MS) Detection. Chromatographic separation was on an ACE C18 column (Mac Mod Analytical, 3 μm, Ultra-Inert HPLC Column, 50×2.1 mm) protected by a matched ACE guard cartridge. Separation solvents were A: H2O (99%), methanol (1%), and formic acid (0.1%) and B: H2O (1%), methanol (99%), and formic acid (0.1%) delivered at a flow rate of 400 μl/minute. The hydrophobic character of the analytes allows a large injection (50 μl) to chromatofocus on a column at 5% B. After 0.2 minutes separation was with a linear gradient of 11% B/minute for 4 minutes. Column wash was to 80% B for 2 minutes and re-equilibration at 5% B for 1.5 minutes for a total run-time of 8 minutes. The first 2 minutes of chromatographic effluent was diverted to waste.
Mass Spectrometry Parameters. The mass spectrometer was run in positive ion mode using the electrospray ionization (ESI) source. The source block was 100° C. and desolvation gas temperature 300° C. Argon collision gas pressure on a line to the cell was 1E-3 mbar. Quadrupoles 1 and 3 were set to 0.9 amu FWHH and collision energy and cone voltage settings were optimized for each compound. The data were processed using MassLynx 4.1/QuanLynx and Graphpad Prism 5. Fragmentation patterns of compounds 4, 8, and 15, methyl (Z)-3-(((6-methoxybenzo[d]thiazol-2-yl)imino)methyl)benzoate, 4-(1-((6-methoxybenzo-[d]thiazol-2-yl)amino)ethyl)phenol, and (Z)-1-(4-fluorophenyl)-N-(6-methoxybenzo[d]thiazol-2-yl) methanimine were determined by infusing an aqueous/methanol solution introduce with a T fitting into 30% solvent B from the UPLC for source optimization. The most abundant transitions were chosen for all the three compounds.
Plasma Sample Preparation. Mouse plasma samples, 50 μl, were transferred to a 1.5 ml centrifuge tube and then 50 μl of IS (4 μg/ml) and 50 μl of calibration standard sample were vortexed for 30 seconds. Acetonitrile (0.1 ml) was added to precipitate the proteins. After being vortexed for 3 minutes, the sample was centrifuged for 10 minutes at 13000 rpm. Supernatant (50 μl) was diluted with 50 μl water and injected onto the column.
Brain Sample Preparation. Brain tissue (100 mg) was weighed and placed in a centrifuge tube. Methanol (100 μl) was added and the mixture was homogenized for 1 minute before adding 100 μl IS (6 μg/ml) to the homogenized mixture. The sample was then vortexed for 30 seconds before centrifuging for 10 minute at 13000 rpm. The supernatant liquid was diluted 50% with water and injected.
Application to Pharmacokinetic Study and Data Analysis. Using the validated LCMS/MS method, blood and brain levels of 4, 8, and 15 were measured in male and female C57BL6 mice (8-10 week-old, weighing approximately 25-30 grams). The mice were housed in a room with controlled temperature (23±3° C.) and moisture level (55±15% relative humidity) and exposed to a controlled 12 hour light/12 hour dark cycle. They were allowed to access to food and water ad libitum. Mice were fasted for 6 hours with free access to water prior to the pharmacokinetic study. To determine the time course of compounds 4, 8, and 15 action in the brain, the plasma pharmacokinetics and BBB penetration capability of the inhibitors were investigated. In these experiments, compounds 4, 8, and 15 were administered to mice by intravenous injection at a dosage of 10 mg/kg. Blood and brain samples were collected from mouse at each time point (2, 5, 10, 30, 60, 120, 240, 360, 720, 1440, and 2880 minutes), a total of 11 time points. For plasma measurements, blood (approximately 500-800 μl) was collected via cardiac-puncture into tubes containing sodium heparin anti-coagulant. Plasma was separated via centrifugation (4° C., 3500 rpm, 10 minutes) and stored in −80° C. freezer. For qualitative confirmations of these compounds in CSF, samples were collected at 2 time points (240 and 1440 min) from five animals at each time point. […]

ABAD = ABAD (Homo sapiens (Human), UniProt Q99714); assay: Surface plasmon resonance (BIACORE 3000) binding experiment with ABAD
Procedure: Binding Experiment with ABAD. The interactions between compounds and ABAD were performed using the dual flow cell BIACORE 3000 instrument. Surface Plasmon Resonance (SPR) studies were performed on a BIACORE 3000 at 25° C. SPR binding experiments with ABAD were performed in phosphate-buffered saline (PBS, pH 7.4, 0.005% surfactant P20) as the running and the sample buffer. […] ABAD was dissolved in PBS buffer (pH 5.0) at a concentration of 10 μg/ml. The protein was immobilized directly and covalently on the hydrophilic carboxymethylated dextran matrix of the CM5 sensor chip (BIACORE) by using the standard primary amine coupling reaction on a CM5 sensor chip according to standard procedures. After the immobilization of the protein, excess activated carboxylic acid groups were quenched with ethanolamine (1 M, pH 8.5).
Special care was taken during injection of samples because of carryover effects. Special washing routines were used to clean the system before injection of new samples. In addition, predipping of needles was performed. The sample flow was 40 μl/minute in experiments performed for the determination of the kinetic and equilibrium constants. Regeneration of the surfaces between subsequent binding experiments was achieved by washing the surface extensively (>>1 hour) with buffer solution. Data analyses were carried out using BIA evaluation software, and the sensor grams were processed by automatic correction for nonspecific bulk refractive index effects. The kinetic analyses of the ligand binding to the protein were performed based on the 1:1 Langmuir binding fit model according to the standard procedures described in the software manual.
To perform kinetic analyses of the binding of phosphonate derivatives to ABAD, the BIACORE 3000 instrument (based on surface plasmon resonance [SPR] technology) was used. The 1:1 Langmuir binding fit model was used for determining the equilibrium dissociation constant (KD), and the association (kon) and dissociation (koff) rate constants by using Equations (1) and (2). dR/dt=kon×C×(Rmax−R)−koff×R (1) Where R represents the response unit, C is the concentration of the analyte, and KD=koff/kon (2) The results were evaluated by χ2 analysis.

[2] = Table 7, 1:1 Langmuir binding fit, read-out: SPR KD

ABAD, sequence (Q99714 whole entry): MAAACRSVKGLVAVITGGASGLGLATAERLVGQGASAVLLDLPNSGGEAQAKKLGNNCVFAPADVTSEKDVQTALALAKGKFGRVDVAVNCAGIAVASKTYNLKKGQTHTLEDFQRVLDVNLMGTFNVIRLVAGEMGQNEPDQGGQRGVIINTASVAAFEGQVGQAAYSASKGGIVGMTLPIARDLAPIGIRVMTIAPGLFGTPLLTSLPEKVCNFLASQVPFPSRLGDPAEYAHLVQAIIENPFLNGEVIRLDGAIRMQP

Structure (SMILES)	CcO activity, inhibitor alone (SK-N-SH cells)	Aβ-mediated decrease of CcO activity (SK-N-SH cells)	AUC(0-inf) ([1]; Brain)	Cmax ([1]; Brain)	Tmax ([1]; Brain)	half-life ([1]; Brain)	AUC(0-t) ([1]; Brain)	AUC(0-inf) ([1]; Plasma)	Cmax ([1]; Plasma)	Tmax ([1]; Plasma)	half-life ([1]; Plasma)	AUC(0-t) ([1]; Plasma)	Kd (ABAD; Table 6, read-out: KD)	Kd (ABAD; [2])
COC(=O)c1cc([C@H](Nc2nc3ccc(OC)cc3s2)P(=O)(OC)OC)ccc1O [Compound 4, Methyl 5-((dimethoxyphosphoryl)((6-methoxybenzo[d]thiazol-2-yl)amino)methyl)-2-hydroxybenzoate]	no effect on CcO activity without Aβ	reversed the Aβ-mediated decrease of CcO activity	75.1 ng·h/mL	50.7 ng/mL	1.8 min	17.1 h	66.5 ng·h/mL	3030 ng·h/mL	2370 ng/mL	1.8 min	6.2 h	3030 ng·h/mL	496 nM	496 nM
COc1ccc2nc(N[C@@H](c3ccc(F)cc3)P(=O)(OC)OC)sc2c1 [Compound 15, Dimethyl ((4-fluorophenyl)((6-methoxybenzo[d]thiazol-2-yl)amino)methyl)phosphonate]	no effect on CcO activity without Aβ	reversed the Aβ-mediated decrease of CcO activity	65.4 ng·h/mL	44.3 ng/mL	1.8 min	11.4 h	64 ng·h/mL	2990 ng·h/mL	1980 ng/mL	1.8 min	6.1 h	2980 ng·h/mL	–	264 nM
COc1ccc2nc(N[C@@H](c3ccc(O)cc3)P(=O)(OC)OC)sc2c1 (racemic) [Compound 8, Dimethyl ((4-hydroxyphenyl)((6-methoxybenzo[d]thiazol-2-yl)amino)methyl)phosphonate]	no effect on CcO activity without Aβ	reversed the Aβ-mediated decrease of CcO activity	7.1 ng·h/mL	4.8 ng/mL	–	8.3 h	6.9 ng·h/mL	2870 ng·h/mL	2130 ng/mL	–	5.5 h	2860 ng·h/mL	–	291 nM
